Measurements reported in patent publication US12509424B2, “Compound and composition as PDGF receptor kinase inhibitor” (NIPPON SHINYAKU CO., LTD., priority 2019, dated 2025).

Tests used:
[1] = target: PDGFR-β (Homo sapiens (Human), UniProt P09619); experiment: PDGFR-β tyrosine kinase inhibitory action (HTRF KinEASE-TK); type: biochemical; settings: PDGFR-β enzyme 1 ng/μL, 30° C. for 30 minutes; read-out: PDGF-β IC50
Method in brief: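 Recombinant PDGFR-β at 1 ng/μL final with TK substrate-3-biotin in a substrate solution containing 0.6 μM ATP; buffer 50 mM HEPES pH 7.0, 5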

[2] = tested on: pulmonary arterial smooth muscle cells; experiment: Suppression of proliferation of pulmonary arterial smooth muscle cells (PDGF-BB stimulation, BrdU); type: cell-based; settings: PASMC, 24 h; healthy human derived pulmonary arterial smooth muscle cells; human PDGF-BB 10 ng/mL stimulation; BrdU uptake after 1 day; test substance final concentration 3 to 10,000 nM; read-out: Human normal PASMC proliferation suppression (PDGF stimulation_IC50)
Method in brief: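 Healthy human pulmonary arterial smooth muscle cells, serum-starved a day in 0.1% FBS medium, were treated with compound at final 3 to 10,000 nM plus human PDGF-BB (final 10 ng/mL) and BrdU. After 1 day of culture, BrdU uptake was measured with an anti-BrdU antibody.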

Sequence of PDGFR-β (P09619 33-1106): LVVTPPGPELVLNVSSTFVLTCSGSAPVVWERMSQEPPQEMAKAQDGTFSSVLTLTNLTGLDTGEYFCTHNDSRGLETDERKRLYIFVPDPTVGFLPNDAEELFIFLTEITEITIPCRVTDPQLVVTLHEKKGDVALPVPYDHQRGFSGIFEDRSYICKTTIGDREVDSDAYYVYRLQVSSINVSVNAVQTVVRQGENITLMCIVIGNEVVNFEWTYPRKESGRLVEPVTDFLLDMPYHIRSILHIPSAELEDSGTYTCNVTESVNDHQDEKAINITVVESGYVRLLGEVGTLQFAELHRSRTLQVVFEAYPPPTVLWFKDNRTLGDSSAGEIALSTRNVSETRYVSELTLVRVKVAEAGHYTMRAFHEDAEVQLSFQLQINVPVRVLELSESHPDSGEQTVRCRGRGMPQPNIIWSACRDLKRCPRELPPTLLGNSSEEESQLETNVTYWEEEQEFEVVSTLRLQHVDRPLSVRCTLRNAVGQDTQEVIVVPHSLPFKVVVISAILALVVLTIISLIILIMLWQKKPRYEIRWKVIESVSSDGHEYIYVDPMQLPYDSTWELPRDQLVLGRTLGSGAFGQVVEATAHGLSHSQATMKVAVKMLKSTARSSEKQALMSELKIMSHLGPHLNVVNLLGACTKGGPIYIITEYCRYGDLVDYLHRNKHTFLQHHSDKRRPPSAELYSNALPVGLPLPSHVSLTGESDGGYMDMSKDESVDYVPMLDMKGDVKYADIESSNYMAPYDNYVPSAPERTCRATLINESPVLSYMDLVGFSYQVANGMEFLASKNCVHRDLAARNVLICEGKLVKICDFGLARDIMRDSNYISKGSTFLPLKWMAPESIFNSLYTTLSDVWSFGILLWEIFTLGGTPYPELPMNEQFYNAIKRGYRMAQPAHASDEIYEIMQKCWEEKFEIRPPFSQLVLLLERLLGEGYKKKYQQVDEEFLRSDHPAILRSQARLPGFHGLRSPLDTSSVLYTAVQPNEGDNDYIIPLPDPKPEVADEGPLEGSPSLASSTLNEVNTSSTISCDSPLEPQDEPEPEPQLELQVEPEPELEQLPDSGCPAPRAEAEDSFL

| Structure (SMILES) | IC50 [1] [µM] | IC50 [2] [µM] |
| --- | --- | --- |
| O=C(N[C@H]1CCCC[C@@H]1O)c1cccc(CNc2cncc(-c3ncccn3)c2)c1 [Example 150, N-[(1S,2S)-2-hydroxycyclohexyl]-3-({[5-(pyrimidin-2-yl)pyridin-3-yl]amino}methyl)benzamide] | 0.36 | 0.3 |
| O=C(N[C@H]1CCCC[C@@H]1O)c1ccc(F)c(CNc2cncc(-c3ncccn3)c2)c1 [Example 151, 4-fluoro-N-[(1S,2S)-2-hydroxycyclohexyl]-3-({[5-(pyrimidin-2-yl)pyridin-3-yl]amino}methyl)benzamide] | 0.17 | 0.25 |
| O=C(N[C@H]1CCCC[C@@H]1O)c1ccc(F)c(/C=C(\F)c2cncc(-c3ccccn3)c2)c1 [Example 177, 3-[(Z)-2-([2,3′-bipyridin]-5′-yl)-2-fluoroethenyl]-4-fluoro-N-[(1S,2S)-2-hydroxycyclohexyl]benzamide] | 0.015 | 0.011 |
| Cc1ncc(C(=O)N[C@H]2CCCC[C@@H]2O)cc1/C=C(\F)c1cncc(-c2ccccn2)c1 [Example 180, 5-[(Z)-2-([2,3′-bipyridin]-5′-yl)-2-fluoroethenyl]-N-[(1S,2S)-2-hydroxycyclohexyl]-6-methylpyridine-3-carboxamide] | 0.016 | 0.032 |
| Cc1ccc(C(=O)N[C@H]2CCCC[C@@H]2O)cc1/C=C(\F)c1cncc(CN2CCN(C)CC2)c1 [Example 181, 3-[(Z)-2-fluoro-2-{5-[(4-methylpiperazin-1-yl)methyl]pyridin-3-yl}ethenyl]-N-[(1S,2S)-2-hydroxycyclohexyl]-4-methylbenzamide] | 0.1 | 0.5 |
| Cc1ccc(C(=O)N[C@H]2CCCC[C@@H]2O)cc1/C=C(\F)c1cncc(CN2CCOCC2)c1 [Example 182, 3-[(Z)-2-fluoro-2-{5-[(morpholin-4-yl)methyl]pyridin-3-yl}ethenyl]-N-[(1S,2S)-2-hydroxycyclohexyl]-4-methylbenzamide] | 0.033 | 0.19 |
| O=C(N[C@H]1CCCC[C@@H]1O)c1ccc(F)c(/C=C(\F)c2cncc(N3CCOCC3)c2)c1 [Example 184, 4-fluoro-3-{(Z)-2-fluoro-2-[5-(morpholin-4-yl)pyridin-3-yl]ethenyl}-N-[(1S,2S)-2-hydroxycyclohexyl]benzamide] | 0.051 | 0.082 |
| CN1CCN(Cc2cncc(/C(F)=C/c3cc(C(=O)N[C@H]4CCCC[C@@H]4O)ccc3F)c2)CC1 [Example 186, 4-fluoro-3-[(Z)-2-fluoro-2-{5-[(4-methylpiperazin-1-yl)methyl]pyridin-3-yl}ethenyl]-N-[(1S,2S)-2-hydroxycyclohexyl]benzamide] | 0.15 | 0.22 |
| Cc1ncc(C(=O)N[C@H]2CCCC[C@@H]2O)cc1/C=C(\F)c1cncc(OCC2CC2)c1 [Example 187, 5-{(Z)-2-[5-(cyclopropylmethoxy)pyridin-3-yl]-2-fluoroethenyl}-N-[(1S,2S)-2-hydroxycyclohexyl]-6-methylpyridine-3-carboxamide] | 0.014 | 0.02 |
| Cc1ncc(C(=O)N[C@H]2CCCC[C@@H]2O)cc1/C=C(\F)c1ccc(N)nc1 [Example 189, 5-[(Z)-2-(6-aminopyridin-3-yl)-2-fluoroethenyl]-N-[(1S,2S)-2-hydroxycyclohexyl]-6-methylpyridine-3-carboxamide] | 0.2 | 0.09 |
| Nc1ccc(/C(F)=C/c2cc(C(=O)N[C@H]3CCCC[C@@H]3O)ccc2F)cn1 [Example 191, 3-[(Z)-2-(6-aminopyridin-3-yl)-2-fluoroethenyl]-4-fluoro-N-[(1S,2S)-2-hydroxycyclohexyl]benzamide] | 0.035 | 0.029 |
| Nc1ncc(/C(F)=C/c2cc(C(=O)N[C@H]3CCCC[C@@H]3O)ccc2F)cn1 [Example 192, 3-[(Z)-2-(2-aminopyrimidin-5-yl)-2-fluoroethenyl]-4-fluoro-N-[(1S,2S)-2-hydroxycyclohexyl]benzamide] | 0.029 | 0.024 |
| CCN1CCN(Cc2cncc(/C(F)=C/c3cc(C(=O)N[C@H]4CCCC[C@@H]4O)ccc3C)c2)CC1 [Example 194, 3-[(Z)-2-{5-[(4-ethylpiperazin-1-yl)methyl]pyridin-3-yl}-2-fluoroethenyl]-N-[(1S,2S)-2-hydroxycyclohexyl]-4-methylbenzamide] | 0.035 | 0.074 |
| Cc1ncc(C(=O)N[C@H]2CCCC[C@@H]2O)cc1/C=C(\F)c1cncc(NC2COC2)c1 [Example 195, 5-[(Z)-2-fluoro-2-{5-[(oxetan-3-yl)amino]pyridin-3-yl}ethenyl]-N-[(1S,2S)-2-hydroxycyclohexyl]-6-methylpyridine-3-carboxamide] | 0.019 | 0.026 |

Now from value to compound, other results behind:

| IC50 [1] [µM] | Structure (SMILES) | IC50 [2] [µM] |
| --- | --- | --- |
| 0.1 | Cc1ccc(C(=O)N[C@H]2CCCC[C@@H]2O)cc1NCc1cncc(-n2nccn2)c1 [Example 145, N-[(1S,2S)-2-hydroxycyclohexyl]-4-methyl-3-({[5-(2H-1,2,3-triazol-2-yl)pyridin-3-yl]methyl}amino)benzamide] | 0.047 |
| 0.18 | Cc1ncc(C(=O)N[C@H]2CCCC[C@@H]2O)cc1CNc1cncc(C#CC2CC2)c1 [Example 157, 5-({[5-(cyclopropylethynyl)pyridin-3-yl]amino}methyl)-N-[(1S,2S)-2-hydroxycyclohexyl]-6-methylpyridine-3-carboxamide] | 0.052 |
| 0.21 | O=C(N[C@H]1CCCC[C@@H]1O)c1ccc(Cl)c(OCc2cncc(-c3ncccn3)c2)c1 [Example 167, 4-chloro-N-[(1S,2S)-2-hydroxycyclohexyl]-3-{[5-(pyrimidin-2-yl)pyridin-3-yl]methoxy}benzamide] | 0.21 |
| 0.2 | O=C(N[C@H]1CCCC[C@@H]1O)c1ccc(Cl)c(COc2cncc(-c3ncccn3)c2)c1 [Example 170, 4-chloro-N-[(1S,2S)-2-hydroxycyclohexyl]-3-({[5-(pyrimidin-2-yl)pyridin-3-yl]oxy}methyl)benzamide] | 0.13 |
| 0.026 | O=C(N[C@H]1CCCC[C@@H]1O)c1ccc(F)c(/C=C(\F)c2cncc(-c3ncccn3)c2)c1 [Example 178, 4-fluoro-3-{(Z)-2-fluoro-2-[5-(pyrimidin-2-yl)pyridin-3-yl]ethenyl}-N-[(1S,2S)-2-hydroxycyclohexyl]benzamide] | 0.044 |
| 0.0059 | Cc1ccc(C(=O)N[C@H]2CCCC[C@@H]2O)cc1/C=C(\F)c1cnc2cccnn12 [Example 179, 3-[(Z)-2-fluoro-2-(imidazo[1,2-b]pyridazin-3-yl)ethenyl]-N-[(1S,2S)-2-hydroxycyclohexyl]-4-methylbenzamide] | 0.02 |
| 0.03 | Cc1ccc(C(=O)N[C@H]2CCCC[C@@H]2O)cc1/C=C(\F)c1ccc(NCC2CC2)nc1 [Example 183, 3-[(Z)-2-{6-[(cyclopropylmethyl)amino]pyridin-3-yl}-2-fluoroethenyl]-N-[(1S,2S)-2-hydroxycyclohexyl]-4-methylbenzamide] | 0.024 |
| 0.0051 | O=C(N[C@H]1CCCC[C@@H]1O)c1ccc(F)c(/C=C(\F)c2cncc(NC3CCOCC3)c2)c1 [Example 185, 4-fluoro-3-[(Z)-2-fluoro-2-{5-[(oxan-4-yl)amino]pyridin-3-yl}ethenyl]-N-[(1S,2S)-2-hydroxycyclohexyl]benzamide] | 0.028 |
| 0.068 | Cc1ncc(C(=O)N[C@H]2CCCC[C@@H]2O)cc1/C=C(\F)c1cncc(N2CCOCC2)c1 [Example 188, 5-{(Z)-2-fluoro-2-[5-(morpholin-4-yl)pyridin-3-yl]ethenyl}-N-[(1S,2S)-2-hydroxycyclohexyl]-6-methylpyridine-3-carboxamide] | 0.06 |
| 0.11 | Cc1ncc(C(=O)N[C@H]2CCCC[C@@H]2O)cc1/C=C(\F)c1cnc(N)nc1 [Example 190, 5-[(Z)-2-(2-aminopyrimidin-5-yl)-2-fluoroethenyl]-N-[(1S,2S)-2-hydroxycyclohexyl]-6-methylpyridine-3-carboxamide] | 0.11 |
| 0.001 | Cc1ccc(C(=O)N[C@H]2CCCC[C@@H]2O)cc1/C=C(\F)c1cncc(NC2CCN(C)CC2)c1 [Example 193, 3-[(Z)-2-fluoro-2-{5-[(1-methylpiperidin-4-yl)amino]pyridin-3-yl}ethenyl]-N-[(1S,2S)-2-hydroxycyclohexyl]-4-methylbenzamide] | 0.018 |
| 0.026 | O=C(N[C@H]1CCCC[C@@H]1O)c1ccc(F)c(/C=C(\F)c2cncc(NC3COC3)c2)c1 [Example 196, 4-fluoro-3-[(Z)-2-fluoro-2-{5-[(oxetan-3-yl)amino]pyridin-3-yl}ethenyl]-N-[(1S,2S)-2-hydroxycyclohexyl]benzamide] | 0.031 |
| 0.12 | Cc1ccc(C(=O)N[C@H]2CCCC[C@@H]2O)cc1/C=C(\F)c1ccc(NCCN(C)C)nc1 [Example 197, 3-[(Z)-2-(6-{[2-(dimethylamino)ethyl]amino}pyridin-3-yl)-2-fluoroethenyl]-N-[(1S,2S)-2-hydroxycyclohexyl]-4-methylbenzamide] | 0.11 |
| 0.0072 | Cc1ccc(C(=O)N[C@H]2CCCC[C@@H]2O)cc1/C=C(\F)c1cncc(NCCN(C)C)c1 [Example 198, 3-[(Z)-2-(5-{[2-(dimethylamino)ethyl]amino}pyridin-3-yl)-2-fluoroethenyl]-N-[(1S,2S)-2-hydroxycyclohexyl]-4-methylbenzamide] | 0.039 |
| 0.052 | Cc1ncc(C(=O)N[C@H]2CCCC[C@@H]2O)cc1/C=C(\F)c1ccc(NCC2CC2)nc1 [Example 199, 5-[(Z)-2-{6-[(cyclopropylmethyl)amino]pyridin-3-yl}-2-fluoroethenyl]-N-[(1S,2S)-2-hydroxycyclohexyl]-6-methylpyridine-3-carboxamide] | 0.07 |
